The results in this text go back to BindingDB's records for doi:10.7270/Q2J101KZ (University of Pittsburgh, 2007).

This assay addresses T1, M-phase inducer phosphatase 2 (Homo sapiens, UniProt P30305).
T1 sequence (P30305 whole entry): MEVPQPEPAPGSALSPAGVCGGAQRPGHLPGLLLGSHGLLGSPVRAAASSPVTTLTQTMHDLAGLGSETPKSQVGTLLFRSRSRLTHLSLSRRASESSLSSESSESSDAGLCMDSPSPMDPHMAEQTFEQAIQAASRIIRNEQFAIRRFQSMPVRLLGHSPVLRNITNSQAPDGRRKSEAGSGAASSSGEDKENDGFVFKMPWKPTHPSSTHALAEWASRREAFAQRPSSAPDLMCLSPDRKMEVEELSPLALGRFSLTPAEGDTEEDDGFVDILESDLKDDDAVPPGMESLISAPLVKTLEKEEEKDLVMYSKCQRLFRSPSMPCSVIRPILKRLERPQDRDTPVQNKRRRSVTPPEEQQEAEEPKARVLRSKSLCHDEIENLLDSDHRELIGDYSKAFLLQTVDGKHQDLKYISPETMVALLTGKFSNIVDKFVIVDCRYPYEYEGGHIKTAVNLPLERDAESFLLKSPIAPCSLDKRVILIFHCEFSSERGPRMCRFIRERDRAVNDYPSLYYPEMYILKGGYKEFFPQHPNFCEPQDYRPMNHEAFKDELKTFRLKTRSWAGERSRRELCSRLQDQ
As to the kind of experiment: Cdc25B catalytic domain phosphatase inhibitors, dose response, biochemical, with glutathione, probe assessment (AID 671).

SMILES strings stand for the structures. A value given as a limit tells only on which side of the number the result lay.

The compound `O=C(Nc1ccc2nc(-c3ccco3)c(-c3ccco3)nc2c1)N1CCCCCC1` registered an IC50 of 23.7 µM.

The compound `Cc1ccc2c(c1C)NC(C(=O)O)C1CC=CC21` (stereo unspecified) yielded a half-inhibitory concentration (IC50) of 4.73 µM. For the compound `O=C(O)C1Nc2c(O)cccc2C2C=CCC12` (stereo unspecified), the IC50 was 6.76 µM. The same measure for `Cn1ncnc2c(=O)n(C)c(=O)nc1-2`: 35.5 µM; for `[O-]/[N+](=C\c1ccncc1)c1ccccc1`: above 50 µM; for `COc1cccc2c(C)c(C(=O)O)[nH]c12`: 6.8 µM. Compound `O=C1C=Cc2ccccc2C1=O` [1,2-dihydronaphthalene-1,2-dione] displayed an IC50 of 25 µM. The figure for `CCn1nc(-c2ccccc2)nc2c(=O)n(C)c(=O)nc1-2` [1-Ethyl-6-methyl-3-phenyl-1H-pyrimido[5,4-e][1,2,4]triazine-5,7-dione] is above 50 µM; for `[O-]/[N+](=C\c1ccc(OC(F)F)cc1)c1ccccc1` [1-[4-(difluoromethoxy)phenyl]-N-phenylmethanimine oxide] it is above 50 µM. The figure for `CCn1nc(-c2cccs2)nc2c(=O)n(C)c(=O)nc1-2` [1-ethyl-6-methyl-3-thiophen-2-yl-pyrimido[5,4-e][1,2,4]triazine-5,7-dione] is above 50 µM. The same measure for `O=C1Cc2ccccc2C(=O)N1CCc1ccccc1` [2-(2-phenylethyl)-4H-isoquinoline-1,3-dione]: above 50 µM; for `N#Cc1c(N)sc(=S)c2c1CCN(Cc1ccccc1)C2` [3-Amino-7-benzyl-1-thioxo-5,6,7,8-tetrahydro-1H-thiopyrano[3,4-c]pyridine-4-carbonitrile]: 43 µM; for `Cc1ccccc1Nc1cc2ccccc2c(O)n1` [3-[(2-methylphenyl)amino]-2H-isoquinolin-1-one]: above 50 µM. Compound `COc1ccc(Br)cc1C=c1sc2nc(-c3ccco3)nn2c1=O` [5-[(5-bromanyl-2-methoxy-phenyl)methylidene]-2-(furan-2-yl)-[1,3]thiazolo[3,2-b][1,2,4]triazol-6-one] displayed an IC50 of 2.13 µM. `CC(=O)Nc1cc(OC(C)=O)c2nonc2c1OC(C)=O` [Acetic acid 7-acetoxy-5-acetylamino-benzo[1,2,5]oxadiazol-4-yl ester] showed an IC50 above 50 µM. Turning to `CCOC(=O)C(C(=O)OCC)c1cc(Br)c2noc3c2c1C(=O)c1ccccc1-3` [MLS000038842], the IC50 was above 50 µM.

On to `Oc1nc(Nc2ccccc2)cc2ccccc12` [MLS000043701], for which the IC50 is above 50 µM. The figure for `Cc1c(N=c2c(=O)c3ccccc3c2=O)c(=O)n(-c2ccccc2)n1C` [MLS000105950] is above 50 µM; for `CCOc1ccc2noc3c2c1C(=O)c1ccccc1-3` [MLS000106837] it is above 50 µM. The figure for `COc1ccc2noc3c2c1C(=O)c1ccccc1-3` [MLS000106874] is above 50 µM; for `c1ccc(CSc2nnc(-c3ccco3)c(-c3ccco3)n2)cc1` [MLS-0029114.0001] it is 11.1 µM.

`O=C(NC1(O)C(=O)c2ccccc2C1=O)c1ccccc1` [N-(2-hydroxy-1,3-dioxo-2-indenyl)benzamide] yielded an IC50 above 50 µM. As to `COc1cccc2c1NC(C(=O)O)C1CC=CC21` (stereo unspecified) [SMR000009698], inhibition was half-maximal at 8.23 µM (IC50).

`O=C(OC1CCCCC1)c1ccc2c(c1)C1C=CCC1C(C(=O)O)N2` (stereo unspecified) [SMR000019385]: the IC50 was determined as 2.79 µM. The figure for `N#Cc1c(N2CCCC2)nc(N)c2c(N)nc(N3CCCC3)cc12` [SMR000061605] is above 50 µM; for `Nc1cccc2cnccc12` [isoquinolin-5-amine] it is above 50 µM.

Broadly, the IC50 is the concentration needed to halve the response being measured. Higher therefore signals lower potency.
